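Interpolation was linear, between the two tested concentrations surrounding the appropriate level; five concentrations were tested over 48 hours in 96-well plates. At the GI50, growth is halved.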 Activity calls are given as the source filed them. Cut-off read from the data, not from the text of the source: active = GI50 up to about 1.1 µM and inactive = higher.
What was measured:
Assay in all cases: NCI tumour cell line growth inhibition, 48 h
SNB-19 = tested on: SNB-19
SF-295 = tested on: SF-295
IGROV-1 = tested on: IGROV-1
TK-10 = tested on: TK-10
UACC-62 = tested on: UACC-62
RPMI-8226 = tested on: RPMI-8226
OVCAR-5 = tested on: OVCAR-5
SW-620 = tested on: SW-620
EKVX = tested on: EKVX
CCRF-CEM = tested on: CCRF-CEM
OVCAR-4 = tested on: OVCAR-4
M14 = tested on: M14
UACC-257 = tested on: UACC-257
HL-60 = tested on: HL-60
HCC 2998 = tested on: HCC 2998
U-251 = tested on: U-251
T47D = tested on: T47D
MDA-MB-435 = tested on: MDA-MB-435

Measured: GI50

CN(CC#N)C1CCCC[C@H]1O (stereo partly specified)
inactive: SNB-19 > 100 µM | SF-295 > 100 µM | IGROV-1 > 100 µM | TK-10 > 100 µM | UACC-62 > 100 µM | RPMI-8226 > 100 µM | OVCAR-5 > 100 µM | SW-620 > 90.4 µM | EKVX > 100 µM | CCRF-CEM > 100 µM | OVCAR-4 > 100 µM | M14 > 100 µM | UACC-257 > 100 µM | HL-60 > 100 µM | HCC 2998 > 100 µM | U-251 > 100 µM

O=[N+]([O-])c1ccc(Cc2nc3cc4ccccc4cc3[nH]2)cc1C(F)(F)F
inactive: SNB-19 15.6 µM | SF-295 11.9 µM | TK-10 20.2 µM | T47D 3.33 µM | MDA-MB-435 6.12 µM | OVCAR-5 14.4 µM | SW-620 19.8 µM | EKVX 25.8 µM | CCRF-CEM 24.3 µM | OVCAR-4 17.5 µM | M14 12.4 µM | UACC-257 14.1 µM | HL-60 10 µM | HCC 2998 16.6 µM | U-251 14.8 µM

CC(C)Cc1ccc(C(C)/C=C2\CCC(CN3CCCC3)C2=O)cc1 (stereo unspecified)
inactive: SNB-19 12.4 µM | SF-295 16.9 µM | IGROV-1 5.74 µM | TK-10 3.69 µM | UACC-62 15.7 µM | RPMI-8226 1.84 µM | OVCAR-5 21.8 µM | SW-620 7.18 µM | EKVX 18.2 µM | CCRF-CEM 2.22 µM | OVCAR-4 13.3 µM | M14 13.8 µM | UACC-257 16.7 µM | HL-60 1.89 µM | HCC 2998 7.08 µM | U-251 5.87 µM

CNC(=O)OCc1c(CO)nc(SC)n1C
inactive: SNB-19 > 100 µM | SF-295 > 100 µM | IGROV-1 > 100 µM | UACC-62 > 100 µM | RPMI-8226 > 100 µM | OVCAR-5 > 100 µM | SW-620 > 100 µM | EKVX > 100 µM | CCRF-CEM > 100 µM | OVCAR-4 > 100 µM | UACC-257 > 100 µM | HL-60 > 100 µM | HCC 2998 > 100 µM | U-251 > 100 µM
